US7736624B2, “Methods and compositions for diagnostic and therapeutic targeting of COX-2” (priority 2006, dated 2010)
Read-outs that look alike come from different tables or passages of the source.

Assays:
ovine COX-1 = target: T1, ovine COX-1 (Ovis aries, UniProt P05979); test: IC50 determinations using purified enzymes (TLC assay), COX-1; assay type: biochemical; conditions: Table 3; assayed against purified enzymes
T1 construct: can be purified from ovine seminal vesicles by standard procedures; from tissue; host or cells: ovine seminal vesicles
T1 sequence (P05979 25-600): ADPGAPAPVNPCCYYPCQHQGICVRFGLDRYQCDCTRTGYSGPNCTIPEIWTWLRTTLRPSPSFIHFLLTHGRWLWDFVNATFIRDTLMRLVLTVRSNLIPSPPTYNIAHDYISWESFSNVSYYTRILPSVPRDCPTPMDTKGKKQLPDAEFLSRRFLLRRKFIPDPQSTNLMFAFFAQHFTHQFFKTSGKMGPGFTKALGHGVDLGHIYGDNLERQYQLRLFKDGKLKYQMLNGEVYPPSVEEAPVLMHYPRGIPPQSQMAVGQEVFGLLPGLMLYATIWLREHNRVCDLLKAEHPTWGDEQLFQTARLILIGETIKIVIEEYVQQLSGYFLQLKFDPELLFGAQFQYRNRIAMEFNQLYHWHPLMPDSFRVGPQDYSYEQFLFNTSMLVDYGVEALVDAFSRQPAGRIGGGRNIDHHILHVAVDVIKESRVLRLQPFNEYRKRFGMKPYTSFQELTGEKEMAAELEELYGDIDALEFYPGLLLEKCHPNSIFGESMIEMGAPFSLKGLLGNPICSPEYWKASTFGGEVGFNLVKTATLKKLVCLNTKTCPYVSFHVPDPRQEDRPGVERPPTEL
Description: (§1) Those skilled in the art will appreciate that an evaluation of the selectivity and efficacy of binding of the NSAID derivative to the COX-2 enzyme, e.g., after the derivative is synthesized, can be desirable. […] One example of an in vitro screening method takes advantage of the fact that both human and murine recombinant COX-2 can be expressed and isolated in pure form from an Sf9 cell expression system. […] Alternatively, membrane preparations from outdated human platelets can provide a source of human COX-1. […] The reaction is stopped by the addition of ethanol/methanol/1 M citrate, pH 4.0 (30:4:1). The extracted products are separated by thin layer chromatography (TLC), which allows quantitation of total product formation as well as assessment of product distribution. This assay is useful to define IC50 values for inhibition of either enzyme, and to determine time-dependency of inhibition. It also provides information concerning changes in products formed as a result of inhibition.
(§2) Reactions were terminated by solvent extraction in Et2O/CH3OH/1 M citrate, pH 4.0 (30:4:1). The phases were separated by centrifugation at 2000 g for 5 minutes and the organic phase was spotted on a 20×20 cm TLC plate (Lieselgel 60, EMD Chemicals, Inc., Gibbstown, N.J., United States of America). The plate was developed in EtOAc/CH2Cl2/glacial AcOH (75:25:1) at 4° C. Radiolabeled prostanoid products were quantitatively determined with a radioactivity scanner available from Bioscan, Inc. (Washington, D.C., United States of America). The percentage of total products observed at different concentrations of the presently disclosed compositions was divided by the percentage of products observed for protein samples preincubated for the same amount of time with DMSO.

Fluorescence in buffer = assay type: physicochemical; conditions: for Fluor. λem: emission; for Fluor. λex: excitation
COX-1 = target: T2, COX-1 (Mus musculus, UniProt P22437); test: Macrophage assay (RAW264.7), COX-1; assay type: cell-based, murine
T2 sequence (P22437 1-602): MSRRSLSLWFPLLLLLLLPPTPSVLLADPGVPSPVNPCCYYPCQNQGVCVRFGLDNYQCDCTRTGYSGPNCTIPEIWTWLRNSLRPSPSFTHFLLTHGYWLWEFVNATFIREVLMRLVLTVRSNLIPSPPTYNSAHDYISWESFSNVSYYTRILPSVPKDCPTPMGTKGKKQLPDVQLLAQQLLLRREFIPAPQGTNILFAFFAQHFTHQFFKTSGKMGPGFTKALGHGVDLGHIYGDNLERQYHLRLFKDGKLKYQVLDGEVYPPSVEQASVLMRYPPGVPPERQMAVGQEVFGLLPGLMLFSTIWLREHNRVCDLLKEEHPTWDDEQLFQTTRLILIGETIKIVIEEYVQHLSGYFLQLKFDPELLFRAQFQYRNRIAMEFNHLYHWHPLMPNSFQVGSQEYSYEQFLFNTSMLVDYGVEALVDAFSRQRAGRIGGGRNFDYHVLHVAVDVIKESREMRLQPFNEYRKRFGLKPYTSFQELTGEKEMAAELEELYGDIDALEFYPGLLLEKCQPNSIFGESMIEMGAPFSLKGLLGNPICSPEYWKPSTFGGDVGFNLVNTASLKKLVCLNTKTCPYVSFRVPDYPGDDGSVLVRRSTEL
Description: (§3) Thus, NSAID derivatives that are identified as potentially useful in the methods described herein can be further tested using, for example, the RAW264.7 murine macrophage cell line. These cells are readily available (for example, from the American Type Culture Collection (ATCC), Manassas, Va., United States of America) and are easily cultured in large numbers. They normally express low levels of COX-1 and very low to undetectable levels of COX-2. Upon exposure to bacterial lipopolysaccharide (LPS), however, COX-2 levels increase dramatically over the ensuing 24 hour period, and the cells produce PGD2 and PGE2 from endogenous arachidonic acid stores (generally, ˜1 nmol/10^7 cells total PG formation). After LPS exposure, the addition of exogenous arachidonic acid results in the formation of additional PGD2 and PGE2 as a result of metabolism by the newly synthesized COX-2.
(§4) This system provides a number of approaches for testing the inhibitory potency of COX-2-selective ligands (e.g., inhibitors). In general, following LPS activation, cells can be treated for 30 minutes with the desired concentrations of candidate derivative(s) in DMSO. ^14C-arachidonic acid can be added, and the cells can be incubated for 15 minutes at 37° C. Product formation can be assessed following extraction and TLC separation of the culture medium. Alternatively, the effects of candidate derivatives on PG synthesis from endogenous arachidonic acid can be assessed by incubating cells with desired concentrations of candidate derivatives 30 minutes prior to LPS exposure. Following a 24-hour incubation, medium can be collected and extracted, and the amount of PGD2 and/or PGE2 can be assayed by gas chromatography-mass spectrometry, liquid chromatography-mass spectrometry, or ELISA.

COX-2 [1] = target: T3, COX-2 (Homo sapiens, UniProt P35354); test: IC50 determinations using purified enzymes (TLC assay), COX-2; assay type: biochemical; design: made in house; host or cells: Sf9 insect cells; conditions: assayed against purified enzymes, read-out: IC50 COX-2
T3 sequence (P35354 18-604): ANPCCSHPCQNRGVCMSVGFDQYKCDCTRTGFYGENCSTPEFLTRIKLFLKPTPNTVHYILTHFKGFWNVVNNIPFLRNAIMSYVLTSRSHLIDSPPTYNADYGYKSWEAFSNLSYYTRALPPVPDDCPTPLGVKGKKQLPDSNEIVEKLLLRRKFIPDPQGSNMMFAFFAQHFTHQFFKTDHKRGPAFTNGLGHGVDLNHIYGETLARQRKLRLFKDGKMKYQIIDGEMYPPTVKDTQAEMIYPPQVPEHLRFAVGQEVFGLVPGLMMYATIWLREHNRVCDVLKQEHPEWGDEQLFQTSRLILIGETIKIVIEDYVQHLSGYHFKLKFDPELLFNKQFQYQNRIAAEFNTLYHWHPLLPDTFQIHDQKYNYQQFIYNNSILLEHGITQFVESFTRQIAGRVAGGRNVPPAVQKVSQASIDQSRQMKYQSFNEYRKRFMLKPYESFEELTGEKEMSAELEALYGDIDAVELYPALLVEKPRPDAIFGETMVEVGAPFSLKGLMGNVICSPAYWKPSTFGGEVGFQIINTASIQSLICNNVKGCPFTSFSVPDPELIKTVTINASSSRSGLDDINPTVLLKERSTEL
Description: as §1, §2

RAW264.7 cells = test: In vitro cell imaging, LPS/IFNγ-activated RAW264.7 cells; assay type: cell-based, mouse; conditions: for fluorescence of control compounds in these in vitro assays: RAW264.7, HEK293/COX-2 and 1483 imaging assays
Method: RAW264.7 cells (a line established from a tumor induced in a mouse by Abelson murine leukemia virus and available from the American Type Culture Collection, Manassas, Va., United States of America) were grown overnight on 35 mm culture dishes (MatTek Corp., Ashland, Mass., United States of America) with glass coverslips in Dulbecco's Modified Eagle Medium (DMEM) plus 10% heat-inactivated fetal bovine serum (FBS). Platings of cells were done in order to reach 30% confluency the next day. After overnight growth, the growth medium was replaced with 2 ml serum-free DMEM per dish. Individual dishes then received 200 ng/ml LPS plus 10 units/ml murine IFNγ (Roche Applied Science, Indianapolis, Ind., United States of America) for 6 hours to induce COX-2. […] After 30 minutes, the cells were washed briefly three times in medium and incubated in Hank's balanced salt solution (HBSS)/Tyrode's for 60 minutes at 37° C. After 60 minutes, the HBSS/Tyrode's was removed and fresh HBSS/Tyrode's was added. The cells were immediately imaged using a Zeiss Axiovert 25 Microscope (propidium iodide filter/2-3 sec exposure/gain of 2).

COX-2 [2] = target: T4, COX-2 (Mus musculus, UniProt Q05769); test: Macrophage assay (RAW264.7), COX-2; assay type: cell-based, murine; conditions: Table 2; macrophage assay (M); read-out: IC50 COX-2
T4 construct: metabolism by the newly synthesized COX-2; endogenous in cells
T4 sequence (Q05769 18-604): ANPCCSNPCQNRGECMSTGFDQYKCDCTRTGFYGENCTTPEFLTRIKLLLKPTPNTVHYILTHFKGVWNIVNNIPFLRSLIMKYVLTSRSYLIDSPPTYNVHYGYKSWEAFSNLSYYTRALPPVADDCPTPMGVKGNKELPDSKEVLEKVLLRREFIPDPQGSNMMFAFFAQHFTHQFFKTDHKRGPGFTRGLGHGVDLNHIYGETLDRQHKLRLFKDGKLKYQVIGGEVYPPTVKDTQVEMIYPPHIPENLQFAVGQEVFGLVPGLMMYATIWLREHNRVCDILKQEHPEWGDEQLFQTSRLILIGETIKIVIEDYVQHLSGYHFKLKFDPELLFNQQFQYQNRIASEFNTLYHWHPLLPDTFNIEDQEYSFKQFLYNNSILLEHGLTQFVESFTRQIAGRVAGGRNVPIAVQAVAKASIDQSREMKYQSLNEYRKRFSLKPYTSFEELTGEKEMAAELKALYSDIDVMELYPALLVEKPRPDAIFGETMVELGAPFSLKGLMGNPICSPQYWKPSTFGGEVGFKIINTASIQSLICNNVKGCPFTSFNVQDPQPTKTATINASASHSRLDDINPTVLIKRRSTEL
Description: as §3, §4

| SMILES | IC50 (ovine COX-1) [µM] | Fluor. λem (Fluorescence in buffer) [nm] | Fluor. λex (Fluorescence in buffer) [nm] | IC50 (COX-1; Table 3, macrophage assay) [M] | IC50 (COX-2 [1]; Table 3) [µM] | fluorescence imaging of cells (RAW264.7 cells; 200 nM, 30 minutes, LPS-activated RAW264.7) | fluorescence of control compounds in these in vitro assays (RAW264.7 cells) | IC50 (COX-2 [2]) [M] | IC50 (COX-1; Table 2, macrophage assay (M)) [M] | IC50 (COX-2 [1]; Table 2) [µM] |
| --- | --- | --- | --- | --- | --- | --- | --- | --- | --- | --- |
| COc1ccc2c(c1)c(CC(=O)NCCNC(=O)c1cc3ccccc3oc1=O)c(C)n2C(=O)c1ccc(Cl)cc1 [Compound 27cc, N-{2-(Coumarin-3-carboxylamido)ethyl}-2-{1-(4-chlorobenzoyl)-5-methoxy-2-methyl-1H-indol-3-yl}acetamide] | > 25 | 405 | 340 | > 2.5e-05 | 0.789 | – | – | – | – | – |
| CCN(CC)c1ccc2c(-c3ccc(S(=O)(=O)NCCOCCOCCOCCOCCC(=O)NCCCCNC(=O)Cc4c(C)n(C(=O)c5ccc(Cl)cc5)c5ccc(OC)cc45)cc3S(=O)(=O)[O-])c3ccc(=[N+](CC)CC)cc-3oc2c1 [Compound 27iii, 5-(N-(23-(1-(4-chlorobenoyl)-5-methoxy-2-methyl-1H-indol-3-yl)-15,22-dioxo-3,6,9,12-tetraoxa-16,21-diazatricosyl)sulfamoyl)-2-(6-(diethylamino)-3-(diethyliminio)-3H-xanthen-9-yl)benzenesulfonate] | > 25 | – | 571 | > 5e-06 | 0.16 | – | – | – | – | – |
| COc1ccc2c(c1)c(CC(=O)NCCNC(=O)c1ccc(C(=O)[O-])c(C3=c4cc5c6c(c4Oc4c3cc3c7c4CCCN7CCC3)CCC[N+]=6CCC5)c1)c(C)n2C(=O)c1ccc(Cl)cc1 [Compound 27ww] | > 25 | – | – | – | > 25 | No fluorescence above background | minimal fluorescence | – | – | – |
| COc1ccc2c(c1)c(CC(=O)NCCCNS(=O)(=O)c1cccc3c(N(C)C)cccc13)c(C)n2C(=O)c1ccc(Cl)cc1 [Compound 27y] | > 25 | 497 | 343 | > 1e-06 | 0.075 | – | – | – | – | – |
| COc1ccc2c(c1)c(CC(=O)NCCCCNS(=O)(=O)c1cccc3c(N(C)C)cccc13)c(C)n2C(=O)c1ccc(Cl)cc1 [Compound 27z] | > 25 | 504 | 324 | > 1e-06 | 0.067 | – | – | – | – | – |
| COc1ccc2c(c1)c(CCNC(=O)c1ccc(C3=c4cc5c6c(c4Oc4c3cc3c7c4CCCN7CCC3)CCC[N+]=6CCC5)c(C(=O)[O-])c1)c(C)n2Cc1ccc(Br)cc1 [Compound 28f] | > 25 | – | – | – | > 25 | – | minimal fluorescence | – | – | – |
| Cc1ccc(-c2cc(CCC(=O)O)nn2-c2ccc(S(N)(=O)=O)cc2)cc1 [Compound 30c, 3-[1-{p-(Sulfonamido)phenyl}-5-p-tolyl-1H-pyrazol-3-yl]propanoic acid] | – | – | – | – | – | – | – | 1.4e-06 | > 5e-06 | 8.9 |
| CCN(CC)c1ccc2c(-c3ccc(S(=O)(=O)NCCOCCOCCOCCOCCC(=O)NCCNC(=O)CCc4cc(-c5ccc(C)cc5)n(-c5ccc(S(N)(=O)=O)cc5)n4)cc3S(=O)(=O)[O-])c3ccc(=[N+](CC)CC)cc-3oc2c1 [Compound 30f] | – | – | – | > 5e-06 | ≥ 25 | – | – | – | – | – |
